Bridge positions count the residues as written; N and C are the ends. Square brackets hold non-standard residues; d marks the D form. Peptide text beside a SMILES is read from it. Phe(4-NO2) = N[C@@H](Cc1ccc([N+](=O)[O-])cc1)C(=O)O; Phe(3,4-F2) = N[C@@H](Cc1ccc(F)c(F)c1)C(=O)O; Bip = N[C@@H](Cc1ccc(-c2ccccc2)cc1)C(=O)O; Phe(3-Cl) = N[C@@H](Cc1cccc(Cl)c1)C(=O)O; Phe(3-OMe) = COc1cccc(C[C@H](N)C(=O)O)c1; Phe(2-Cl) = N[C@@H](Cc1ccccc1Cl)C(=O)O; Phe(3-Me) = Cc1cccc(C[C@H](N)C(=O)O)c1; 1Nal = N[C@@H](Cc1cccc2ccccc12)C(=O)O; d1Nal = N[C@H](Cc1cccc2ccccc12)C(=O)O; dBta = N[C@H](Cc1csc2ccccc12)C(=O)O; Cit = NC(=O)NCCC[C@H](N)C(=O)O; NMeA = CN[C@@H](C)C(=O)O; Orn = NCCC[C@H](N)C(=O)O; Dab = NCC[C@H](N)C(=O)O
Biological target: T1, PE-labeled human PD-L1-Ig binding to Jurkat cell line over-expressing human PD-1 (Jurkat-PD-1) (Homo sapiens, UniProt Q15116)
T1 construct: expressed in transfected cells; host or cells: Jurkat
T1 sequence (Q15116 25-288): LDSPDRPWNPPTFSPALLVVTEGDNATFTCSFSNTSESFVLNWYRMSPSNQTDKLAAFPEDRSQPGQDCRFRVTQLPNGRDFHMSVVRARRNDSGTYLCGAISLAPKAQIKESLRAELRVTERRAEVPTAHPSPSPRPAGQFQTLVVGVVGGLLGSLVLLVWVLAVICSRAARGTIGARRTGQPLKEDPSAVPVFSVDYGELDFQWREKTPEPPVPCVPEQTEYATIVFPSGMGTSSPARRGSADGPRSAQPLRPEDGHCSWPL
Assay: Jurkat-PD-1 Cell Binding High-Content Screening Assay (CBA): Method 1
Conditions: Jurkat-hPD-1 cells, PE-labeled PD-L1-Ig 20 nM final; read-out: Jurkat HPDL1 PD1 IC50 (uM) (Method 1)

Row | Compound | IC50
1 | CC(C)C[C@@H]1NC(=O)[C@H](CCCNC(=N)N)NC(=O)[C@@H](Cc2csc3ccccc23)NC(=O)[C@H](C)N(C)C(=O)[C@H](CCCNC(=N)N)NC(=O)[C@H](Cc2ccc(-c3ccccc3)cc2)NC(=O)[C@H](C(C)C)NC(=O)[C@H](Cc2c[nH]c3ccccc23)NC(=O)[C@H](CC(=O)O)NC(=O)[C@H](Cc2ccc(O)cc2)NC(=O)[C@H](Cc2ccccc2)NC(=O)CSC[C@@H](C(=O)N[C@@H](C)C(N)=O)NC(=O)[C@H]([C@@H](C)O)NC(=O)[C@H](C(C)C)NC1=O [Compound 1180] ({CH2CO}-FYDWV[Bip]R[NMeA][dBta]RLVTCA-NH2; thioether N-14) | 0.51 µM
2 | CC(C)C[C@@H]1NC(=O)[C@H](CCCN)NC(=O)[C@@H](Cc2cccc3ccccc23)NC(=O)[C@H](C)N(C)C(=O)[C@H](CCCNC(=N)N)NC(=O)[C@H](Cc2ccc(-c3ccccc3)cc2)NC(=O)[C@H](C(C)C)NC(=O)[C@H](Cc2c[nH]c3ccccc23)NC(=O)[C@H](CC(=O)O)NC(=O)[C@H](Cc2ccc(O)cc2)NC(=O)[C@H](CC(N)=O)NC(=O)CSC[C@@H](C(=O)N[C@@H](C)C(N)=O)NC(=O)[C@H]([C@@H](C)O)NC(=O)[C@H](C(C)C)NC1=O [Compound 1182] ({CH2CO}-NYDWV[Bip]R[NMeA][d1Nal][Orn]LVTCA-NH2; thioether N-14) | 0.3 µM
3 | CC(C)C[C@@H]1NC(=O)[C@H](CCCNC(=N)N)NC(=O)[C@H](Cc2cccc3ccccc23)NC(=O)[C@H](C)N(C)C(=O)[C@H](CCCNC(=N)N)NC(=O)[C@H](Cc2ccc(-c3ccccc3)cc2)NC(=O)[C@H](C(C)C)NC(=O)[C@H](Cc2c[nH]c3ccccc23)NC(=O)[C@H](CC(=O)O)NC(=O)[C@H](Cc2ccc(O)cc2)NC(=O)[C@H](CC(N)=O)NC(=O)CSC[C@@H](C(=O)N[C@@H](C)C(N)=O)NC(=O)[C@H]([C@@H](C)O)NC(=O)[C@H](C(C)C)NC1=O [Compound 1185] ({CH2CO}-NYDWV[Bip]R[NMeA][1Nal]RLVTCA-NH2; thioether N-14) | 0.35 µM
4 | CC(C)C[C@@H]1NC(=O)[C@H](CCN)NC(=O)[C@@H](CC(C)C)NC(=O)[C@H](C)N(C)C(=O)[C@H](CCCNC(=N)N)NC(=O)[C@H](Cc2ccc(-c3ccccc3)cc2)NC(=O)[C@H](C(C)C)NC(=O)[C@H](Cc2c[nH]c3ccccc23)NC(=O)[C@H](CC(=O)O)NC(=O)[C@H](Cc2ccc([N+](=O)[O-])cc2)NC(=O)[C@H](CC(N)=O)NC(=O)CSC[C@@H](C(=O)N[C@@H](C)C(N)=O)NC(=O)[C@H]([C@@H](C)O)NC(=O)[C@H](C(C)C)NC1=O [Compound 1188] ({CH2CO}-N[Phe(4-NO2)]DWV[Bip]R[NMeA][dL][Dab]LVTCA-NH2; thioether N-14) | 0.09 µM
5 | CC(C)C[C@@H]1NC(=O)[C@H](CCN)NC(=O)[C@@H](CC(C)C)NC(=O)[C@H](C)N(C)C(=O)[C@H](CCCNC(=N)N)NC(=O)[C@H](Cc2ccc(-c3ccccc3)cc2)NC(=O)[C@H](C(C)C)NC(=O)[C@H](Cc2c[nH]c3ccccc23)NC(=O)[C@H](CC(=O)O)NC(=O)[C@H](Cc2ccc(O)cc2)NC(=O)[C@H](CC(N)=O)NC(=O)CSC[C@@H](C(=O)N[C@@H](C)C(N)=O)NC(=O)[C@H]([C@@H](C)O)NC(=O)[C@H](C(C)C)NC1=O [Compound 1189] ({CH2CO}-NYDWV[Bip]R[NMeA][dL][Dab]LVTCA-NH2; thioether N-14) | 0.03 µM
6 | CC(C)C[C@@H]1NC(=O)[C@H](CCN)NC(=O)[C@@H](CC(C)C)NC(=O)[C@H](C)N(C)C(=O)[C@H](CCCNC(N)=O)NC(=O)[C@H](Cc2ccc(-c3ccccc3)cc2)NC(=O)[C@H](C(C)C)NC(=O)[C@H](Cc2cccc(Cl)c2)NC(=O)[C@H](CC(=O)O)NC(=O)[C@H](Cc2ccc(O)cc2)NC(=O)[C@H](CC(N)=O)NC(=O)CSC[C@@H](C(=O)N[C@@H](C)C(N)=O)NC(=O)[C@H]([C@@H](C)O)NC(=O)[C@H](C(C)C)NC1=O [Compound 1190] ({CH2CO}-NYD[Phe(3-Cl)]V[Bip][Cit][NMeA][dL][Dab]LVTCA-NH2; thioether N-14) | 0.02 µM
7 | CC(C)C[C@@H]1NC(=O)[C@H](CCCNC(=N)N)NC(=O)[C@@H](CC(C)C)NC(=O)[C@H](C)N(C)C(=O)[C@H](CCCNC(=N)N)NC(=O)[C@H](Cc2ccc(-c3ccccc3)cc2)NC(=O)[C@H](C(C)C)NC(=O)[C@H](Cc2ccccc2Cl)NC(=O)[C@H](CC(=O)O)NC(=O)[C@H](Cc2ccc(O)cc2)NC(=O)[C@H](CC(N)=O)NC(=O)CSC[C@@H](C(=O)N[C@@H](C)C(N)=O)NC(=O)[C@H]([C@@H](C)O)NC(=O)[C@H](C(C)C)NC1=O [Compound 1193] ({CH2CO}-NYD[Phe(2-Cl)]V[Bip]R[NMeA][dL]RLVTCA-NH2; thioether N-14) | 0.35 µM

Continued by falling IC50, values first:

Row | IC50 | Compound
8 | 0.93 µM | CC(C)C[C@@H]1NC(=O)[C@H](CCN)NC(=O)[C@@H](CC(C)C)NC(=O)[C@H](C)N(C)C(=O)[C@H](CCCNC(=N)N)NC(=O)[C@H](Cc2ccc(-c3ccccc3)cc2)NC(=O)[C@H](C(C)C)NC(=O)[C@H](Cc2c[nH]c3ccccc23)NC(=O)[C@H](CC(N)=O)NC(=O)[C@H](Cc2ccc(O)cc2)NC(=O)[C@H](CC(N)=O)NC(=O)CSC[C@@H](C(=O)N[C@@H](C)C(N)=O)NC(=O)[C@H]([C@@H](C)O)NC(=O)[C@H](C(C)C)NC1=O [Compound 1186] ({CH2CO}-NYNWV[Bip]R[NMeA][dL][Dab]LVTCA-NH2; thioether N-14)
9 | 0.69 µM | CC(C)C[C@@H]1NC(=O)[C@H](CCCNC(=N)N)NC(=O)[C@@H](CC(C)C)NC(=O)[C@H](C)N(C)C(=O)[C@H](CCCNC(=N)N)NC(=O)[C@H](Cc2ccc(-c3ccccc3)cc2)NC(=O)[C@H](C(C)C)NC(=O)[C@H](Cc2ccc(F)c(F)c2)NC(=O)[C@H](CC(=O)O)NC(=O)[C@H](Cc2ccc(O)cc2)NC(=O)[C@H](CC(N)=O)NC(=O)CSC[C@@H](C(=O)N[C@@H](C)C(N)=O)NC(=O)[C@H]([C@@H](C)O)NC(=O)[C@H](C(C)C)NC1=O [Compound 1194] ({CH2CO}-NYD[Phe(3,4-F2)]V[Bip]R[NMeA][dL]RLVTCA-NH2; thioether N-14)
10 | 0.34 µM | CC(C)C[C@@H]1NC(=O)[C@H](CCCNC(=N)N)NC(=O)[C@@H](Cc2csc3ccccc23)NC(=O)[C@H](C)N(C)C(=O)[C@H](CCCNC(=N)N)NC(=O)[C@H](Cc2ccc(-c3ccccc3)cc2)NC(=O)[C@H](C(C)C)NC(=O)[C@H](Cc2c[nH]c3ccccc23)NC(=O)[C@H](CC(=O)O)NC(=O)[C@H](Cc2ccc(O)cc2)NC(=O)[C@H](CC(N)=O)NC(=O)CSC[C@@H](C(=O)N[C@@H](C)C(N)=O)NC(=O)[C@H]([C@@H](C)O)NC(=O)[C@H](C(C)C)NC1=O [Compound 1181] ({CH2CO}-NYDWV[Bip]R[NMeA][dBta]RLVTCA-NH2; thioether N-14)
11 | 0.15 µM | CC(C)C[C@@H]1NC(=O)[C@H](CCN)NC(=O)[C@@H](CC(C)C)NC(=O)[C@H](C)N(C)C(=O)[C@H](CCCNC(=N)N)NC(=O)[C@H](Cc2ccc(-c3ccccc3)cc2)NC(=O)[C@H](C(C)C)NC(=O)[C@H](Cc2c[nH]c3ccccc23)NC(=O)[C@H](CC(=O)O)NC(=O)[C@H](Cc2ccc(O)cc2)NC(=O)[C@H](CC(N)=O)NC(=O)CSC[C@@H](C(=O)N[C@H](C)C(N)=O)NC(=O)[C@H]([C@@H](C)O)NC(=O)[C@H](C(C)C)NC1=O [Compound 1183] ({CH2CO}-NYDWV[Bip]R[NMeA][dL][Dab]LVTC[dA]-NH2; thioether N-14)
12 | 0.13 µM | CC(C)C[C@@H]1NC(=O)[C@H](CCCCN)NC(=O)[C@@H](CC(C)C)NC(=O)[C@H](C)N(C)C(=O)[C@H](CCCNC(=N)N)NC(=O)[C@H](Cc2ccc(-c3ccccc3)cc2)NC(=O)[C@H](C(C)C)NC(=O)[C@H](Cc2c[nH]c3ccccc23)NC(=O)[C@H](CC(=O)O)NC(=O)[C@H](Cc2ccc(O)cc2)NC(=O)[C@H](Cc2ccccc2)NC(=O)CSC[C@@H](C(=O)N[C@@H](CO)C(N)=O)NC(=O)[C@H]([C@@H](C)O)NC(=O)[C@H](C(C)C)NC1=O [Compound 1184] ({CH2CO}-FYDWV[Bip]R[NMeA][dL]KLVTCS-NH2; thioether N-14)
13 | 0.07 µM | COc1cccc(C[C@@H]2NC(=O)[C@H](CC(=O)O)NC(=O)[C@H](Cc3ccc(O)cc3)NC(=O)[C@H](CC(N)=O)NC(=O)CSC[C@@H](C(=O)N[C@@H](C)C(N)=O)NC(=O)[C@H]([C@@H](C)O)NC(=O)[C@H](C(C)C)NC(=O)[C@H](CC(C)C)NC(=O)[C@H](CCCNC(N)=O)NC(=O)[C@@H](CC(C)C)NC(=O)[C@H](C)N(C)C(=O)[C@H](CCCNC(=N)N)NC(=O)[C@H](Cc3ccc(-c4ccccc4)cc3)NC(=O)[C@H](C(C)C)NC2=O)c1 [Compound 1191] ({CH2CO}-NYD[Phe(3-OMe)]V[Bip]R[NMeA][dL][Cit]LVTCA-NH2; thioether N-14)
14 | 0.05 µM | CC(C)C[C@@H]1NC(=O)[C@H](CCN)NC(=O)[C@@H](CC(C)C)NC(=O)[C@H](C)N(C)C(=O)[C@H](CCCNC(=N)N)NC(=O)[C@H](Cc2ccc(-c3ccccc3)cc2)NC(=O)[C@H](C(C)C)NC(=O)[C@H](Cc2c[nH]c3ccccc23)NC(=O)[C@H](CC(=O)O)NC(=O)[C@H](Cc2ccc(O)cc2)NC(=O)[C@H](Cc2ccc([N+](=O)[O-])cc2)NC(=O)CSC[C@@H](C(=O)N[C@@H](C)C(N)=O)NC(=O)[C@H]([C@@H](C)O)NC(=O)[C@H](C(C)C)NC1=O [Compound 1187] ({CH2CO}-[Phe(4-NO2)]YDWV[Bip]R[NMeA][dL][Dab]LVTCA-NH2; thioether N-14)
15 | 0.03 µM | Cc1cccc(C[C@@H]2NC(=O)[C@H](CC(=O)O)NC(=O)[C@H](Cc3ccc(O)cc3)NC(=O)[C@H](CC(N)=O)NC(=O)CSC[C@@H](C(=O)N[C@@H](C)C(N)=O)NC(=O)[C@H]([C@@H](C)O)NC(=O)[C@H](C(C)C)NC(=O)[C@H](CC(C)C)NC(=O)[C@H](CCCNC(=N)N)NC(=O)[C@@H](CC(C)C)NC(=O)[C@H](C)N(C)C(=O)[C@H](CCCNC(=N)N)NC(=O)[C@H](Cc3ccc(-c4ccccc4)cc3)NC(=O)[C@H](C(C)C)NC2=O)c1 [Compound 1192] ({CH2CO}-NYD[Phe(3-Me)]V[Bip]R[NMeA][dL]RLVTCA-NH2; thioether N-14)

Source: patent US20240409585A1, “MACROCYCLIC IMMUNOMODULATORS” (priority 2021, published 2024)
